Assay results: ChEMBL document CHEMBL5352468, “Rational design, synthesis, and pharmacological evaluation of a cohort of novel beta-adrenergic receptors ligands enables an assessment of structure-activity relationships” (Eur J Med Chem, 2023)

Tests used:
Type in all cases: functional, cell-based
[1] = biological target: T1, Beta-3 adrenergic receptor (Homo sapiens, UniProt P13945); assay: Agonist activity at human beta3-adrenergic receptor expressed in CHO-K1 cells co-expressing CRE-SPAP reporter gene assessed as CRE-SPAP production measured after 5 hrs incubation
T1 sequence (P13945 whole entry): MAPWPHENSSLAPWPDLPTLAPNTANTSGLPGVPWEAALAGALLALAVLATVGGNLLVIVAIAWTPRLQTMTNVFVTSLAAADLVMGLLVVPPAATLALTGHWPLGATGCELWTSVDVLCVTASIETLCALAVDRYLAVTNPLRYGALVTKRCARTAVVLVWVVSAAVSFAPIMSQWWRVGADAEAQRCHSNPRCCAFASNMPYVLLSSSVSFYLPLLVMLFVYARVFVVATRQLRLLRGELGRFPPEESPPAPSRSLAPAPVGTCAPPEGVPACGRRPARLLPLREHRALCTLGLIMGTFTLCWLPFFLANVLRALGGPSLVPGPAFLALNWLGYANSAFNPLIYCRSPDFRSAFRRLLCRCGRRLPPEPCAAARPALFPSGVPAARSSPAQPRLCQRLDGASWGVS

[2] = biological target: T1, Beta-3 adrenergic receptor; assay: Antagonist activity at human beta3-adrenergic receptor expressed in CHO-K1 cells co-expressing CRE-SPAP reporter gene assessed as inhibition of fenoterol-induced CRE-SPAP production by measuring rightward shift of the fenoterol concentration response curve measured after 5 hrs incubation
[3] = biological target: T2, Beta-2 adrenergic receptor (Homo sapiens, UniProt P07550); assay: Agonist activity at human beta2-adrenergic receptor expressed in CHO-K1 cells co-expressing CRE-SPAP reporter gene assessed as CRE-SPAP production measured after 5 hrs incubation
T2 sequence (P07550 whole entry): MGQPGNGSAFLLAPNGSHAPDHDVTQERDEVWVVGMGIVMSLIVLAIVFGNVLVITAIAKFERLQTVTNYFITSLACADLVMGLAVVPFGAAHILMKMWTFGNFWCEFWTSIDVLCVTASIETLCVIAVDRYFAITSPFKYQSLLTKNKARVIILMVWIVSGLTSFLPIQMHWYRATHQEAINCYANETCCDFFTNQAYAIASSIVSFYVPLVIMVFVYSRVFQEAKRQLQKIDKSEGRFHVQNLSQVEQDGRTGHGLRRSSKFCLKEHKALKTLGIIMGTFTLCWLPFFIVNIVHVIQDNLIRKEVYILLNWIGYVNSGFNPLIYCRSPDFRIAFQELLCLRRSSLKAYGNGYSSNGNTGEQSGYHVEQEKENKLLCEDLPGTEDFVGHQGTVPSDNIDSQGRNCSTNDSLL

[4] = biological target: T2, Beta-2 adrenergic receptor; assay: Antagonist activity at human beta2-adrenergic receptor expressed in CHO-K1 cells co-expressing CRE-SPAP reporter gene assessed as inhibition of fenoterol-induced CRE-SPAP production by measuring rightward shift of the fenoterol concentration response curve measured after 5 hrs incubation
[5] = biological target: T3, Beta-1 adrenergic receptor (Homo sapiens, UniProt P08588); assay: Antagonist activity at human beta1-adrenergic receptor expressed in CHO-K1 cells co-expressing CRE-SPAP reporter gene assessed as inhibition of fenoterol-induced CRE-SPAP production by measuring rightward shift of the fenoterol concentration response curve measured after 5 hrs incubation
T3 sequence (P08588 whole entry): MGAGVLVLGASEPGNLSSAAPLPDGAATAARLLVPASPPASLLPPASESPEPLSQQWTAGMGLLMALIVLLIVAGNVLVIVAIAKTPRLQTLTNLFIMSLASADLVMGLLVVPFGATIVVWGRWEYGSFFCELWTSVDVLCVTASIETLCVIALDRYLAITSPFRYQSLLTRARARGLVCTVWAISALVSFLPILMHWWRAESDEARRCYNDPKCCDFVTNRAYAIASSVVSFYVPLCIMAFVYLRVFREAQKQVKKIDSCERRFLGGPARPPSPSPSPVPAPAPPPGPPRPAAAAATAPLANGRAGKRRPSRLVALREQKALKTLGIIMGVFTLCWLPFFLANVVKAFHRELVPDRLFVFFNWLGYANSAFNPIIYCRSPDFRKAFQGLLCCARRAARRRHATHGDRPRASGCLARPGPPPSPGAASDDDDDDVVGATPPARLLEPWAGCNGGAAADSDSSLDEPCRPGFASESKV

[6] = biological target: T3, Beta-1 adrenergic receptor; assay: Agonist activity at human beta1-adrenergic receptor expressed in CHO-K1 cells co-expressing CRE-SPAP reporter gene assessed as CRE-SPAP production measured after 5 hrs incubation

Question: Which EC50 ([1]; read-out: pEC50 (converted)) does the source give for `CCc1ccccc1OC[C@@H](O)CN[C@H]1CCCc2ccccc21` here?
Answer: The EC50 was 191 nM.

Question: And the Kd ([2]; read-out: pKd (converted))?
Answer: The Kd was 69.2 nM.

Question: And the EC50 ([3]; read-out: pEC50 (converted))?
Answer: The EC50 was 8.71 nM.

Question: And the Kd ([4]; read-out: pKd (converted))?
Answer: Its Kd is 3.8 nM.

Question: Which Kd ([5]; read-out: pKd (converted)) does the source give for `CC(=O)NCc1cccc(OC[C@@H](O)CNCCc2ccc(NS(=O)(=O)c3ccccc3)cc2)c1` here?
Answer: The Kd was 339 nM.

Question: And the EC50 ([1]; read-out: pEC50 (converted))?
Answer: The EC50 was 4.47 nM.

Question: What about the Kd ([2]; read-out: pKd (converted)) of the same compound?
Answer: The Kd was 6.76 nM.

Question: What about the EC50 ([3]; read-out: EC50) of the same compound?
Answer: Its EC50 is 10000 nM.

Question: And the EC50 [6]?
Answer: The EC50 was 380 nM.

Question: What about the Kd ([4]; read-out: pKd (converted)) of the same compound?
Answer: The Kd was 74.1 nM.

Question: `COC(=O)[C@H](N)Cc1ccc(OC[C@@H](O)CNCC2COc3ccccc3O2)cc1` (stereo partly drawn) was tested. Which Kd ([2]; read-out: Kd) did it give?
Answer: The Kd was greater than 10000 nM.

Question: With `CCc1ccccc1OC[C@@H](O)CNCCC(c1ccccc1)c1ccccc1` as the compound, how does the Kd ([5]; read-out: pKd (converted)) read?
Answer: Its Kd is 135 nM.

Question: What about the EC50 [6] of the same compound?
Answer: Its EC50 is 309 nM.

Question: `CC1(C)CC(=O)c2ccc(OC[C@H](O)CNCCCN3C(=O)c4ccccc4C3=O)cc2O1` was tested. Which Kd ([5]; read-out: Kd) did it give?
Answer: Its Kd is greater than 10000 nM.

Question: For `CC1(C)CC(=O)c2ccc(OC[C@@H](O)CNCCCN3C(=O)c4ccccc4C3=O)cc2O1`, which Kd ([5]; read-out: Kd) is on record?
Answer: Its Kd is greater than 10000 nM.

Question: How did the Kd ([5]; read-out: pKd (converted)) turn out when `O[C@@H](CNCC1COc2ccccc2O1)COc1ccnc2ccccc12` (stereo partly drawn) was run?
Answer: Its Kd is 6030 nM.

Question: `O[C@@H](CNCC1COc2ccccc2O1)COc1ccc2c(c1)OCO2` (stereo partly drawn) was tested. Which Kd ([5]; read-out: pKd (converted)) did it give?
Answer: The Kd was 1580 nM.

Question: What about the EC50 [6] of the same compound?
Answer: The EC50 was 316 nM.

Question: And the Kd ([4]; read-out: pKd (converted))?
Answer: The Kd was 1550 nM.

Question: What does the source list for `COc1ccc(S(=O)(=O)NCCCCNC[C@H](O)COc2ccc3c(c2)OC(C)(C)CC3=O)cc1`?
Answer: Kd ([5]; read-out: Kd): > 10000 nM; Kd ([2]; read-out: Kd): > 10000 nM

Question: What does the source list for `CS(=O)(=O)c1ccc(CCNC[C@H](O)COc2ccc3ccc(=O)oc3c2)cc1`?
Answer: Kd ([2]; read-out: Kd): > 10000 nM; Kd ([4]; read-out: Kd): > 10000 nM

Question: `O=c1ccc2ccc(OC[C@@H](O)CNCC3COc4ccccc4O3)cc2o1` (stereo partly drawn) was tested. Which Kd ([4]; read-out: pKd (converted)) did it give?
Answer: Its Kd is 6610 nM.

Question: For `O=C1COc2cc(OC[C@@H](O)CNCC3COc4ccccc4O3)ccc21` (stereo partly drawn), which Kd ([4]; read-out: pKd (converted)) is on record?
Answer: The Kd was 3630 nM.

Question: How did the Kd ([2]; read-out: Kd) turn out when `CC1(C)CC(=O)c2ccc(OC[C@@H](O)CNCCCc3ccccc3)cc2O1` was run?
Answer: Its Kd is greater than 10000 nM.

Question: Which Kd ([5]; read-out: pKd (converted)) does the source give for `O[C@@H](CNCC1COc2ccccc2O1)COc1cccc2cnccc12` (stereo partly drawn) here?
Answer: Its Kd is 102 nM.

Question: What about the EC50 ([1]; read-out: EC50) of the same compound?
Answer: Its EC50 is 10000 nM.

Question: What about the Kd ([2]; read-out: pKd (converted)) of the same compound?
Answer: The Kd was 1350 nM.

Question: And the EC50 ([3]; read-out: EC50)?
Answer: The EC50 was 10000 nM.

Question: And the EC50 [6]?
Answer: The EC50 was 74.1 nM.

Question: And the Kd ([4]; read-out: pKd (converted))?
Answer: The Kd was 107 nM.

Question: For `O=c1ccc2ccc(OC[C@@H](O)CNCCc3ccc4c(c3)OCO4)cc2o1`, which Kd ([5]; read-out: pKd (converted)) is on record?
Answer: Its Kd is 5620 nM.

Question: And the Kd ([2]; read-out: Kd)?
Answer: The Kd was greater than 10000 nM.

Question: `CC1(C)CC(=O)c2ccc(OC[C@H](O)CNCCCc3ccccc3)cc2O1` was tested. Which Kd ([2]; read-out: Kd) did it give?
Answer: The Kd was greater than 10000 nM.

Question: `COc1ccc(S(=O)(=O)NCCCCCCNC[C@H](O)COc2ccc3ccc(=O)oc3c2)cc1` was tested. Which Kd ([2]; read-out: Kd) did it give?
Answer: Its Kd is greater than 10000 nM.

Question: For `CC(=O)Nc1ccc(CCNC[C@H](O)COc2ccc3ccc(=O)oc3c2)cc1`, which Kd ([2]; read-out: Kd) is on record?
Answer: The Kd was greater than 10000 nM.

Question: And the Kd ([4]; read-out: Kd)?
Answer: The Kd was greater than 10000 nM.
